Earlier results, collected in patent US11752221B2, “Brush-arm star polymer imaging agents and uses thereof” (priority 2017, dated 2023).
“And” between values parts separate entries of the source, which are not always exact repeats. Identical values can stand only once. Like-named read-outs stand apart in the source and are kept apart here.

Legend:
[1] = earlier studies
[2] = 0.2 mM nitroxide, 4.0 mM Asc
subcutaneous C26 tumors = conditions: 0.23 mmol Gd/kg iv dose, after 4 hours

## CC1(C)CC(C(=O)O)C(C)(C)N1[O] (stereo not shown) [3-CP, 3-carboxy-2,2,5,5-tetramethyl-1-pyrrolidinyloxy]
[1]
  r1 (per-chex for chex polymers): 0.14 mM⁻¹ s⁻¹
[2]; 0.0 mM GSH, data used IPH
  Initial kinetics (<1 h) k × 10^4: 636.8 M^−1 s^−1 and 624.5 M^−1 s^−1 and 614.8 M^−1 s^−1
  Initial kinetics (<1 h) k′ × 10^4: 2.547 s^−1 and 2.498 s^−1 and 2.459 s^−1
  Initial kinetics Avg k × 10^4: 625 ± 22 M^−1 s^−1
[2]; 0.0 mM GSH, data used PH
  Initial kinetics (<1 h) k × 10^4: 636.0 M^−1 s^−1 and 599.0 M^−1 s^−1 and 597.3 M^−1 s^−1
  Initial kinetics (<1 h) k′ × 10^4: 2.504 s^−1 and 2.396 s^−1 and 2.389 s^−1
  Initial kinetics Avg k × 10^4: 611 ± 44 M^−1 s^−1
  Late kinetics (>1 h) k × 10^4: 295 M^−1 s^−1
  Late kinetics (>1 h) k′ × 10^4: 1.18 s^−1
[2]; 5.0 mM GSH, data used IPH
  Initial kinetics (<1 h) k × 10^4: 608.8 M^−1 s^−1 and 609.6 M^−1 s^−1 and 605.6 M^−1 s^−1
  Initial kinetics (<1 h) k′ × 10^4: 2.435 s^−1 and 2.438 s^−1 and 2.423 s^−1
  Initial kinetics Avg k × 10^4: 608.0 ± 4.2 M^−1 s^−1
[2]; 5.0 mM GSH, data used PH
  Initial kinetics (<1 h) k × 10^4: 590.3 M^−1 s^−1 and 602.4 M^−1 s^−1 and 615.2 M^−1 s^−1
  Initial kinetics (<1 h) k′ × 10^4: 2.361 s^−1 and 2.410 s^−1 and 2.461 s^−1
  Initial kinetics Avg k × 10^4: 602.6 ± 25 M^−1 s^−1

## O=C([O-])CN(CCN(CC(=O)[O-])CC(=O)O)CCN(CC(=O)[O-])CC(=O)O.[Gd+3] [Gd-DTPA]
Subcutaneous C26 tumors
  contrast enhancement of tumor: negligible contrast enhancement
